The values below come from patent publication US11691962B2 (eXIthera Pharmaceuticals, Inc., priority 2018, dated 2023).

Series [1] is described as follows: Plasma protein binding by equilibrium dialysis. In kind it is in vitro ADME. The conditions noted are these: both sexes, pH 7.4, pooled human plasma, 4 hours at 37° C., read-out: PPB (%). The gist of the method: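 Pooled mixed-gender human plasma spiked with compound at 10 μM was dialysed against PBS pH 7.4 for 4 h at 37°C. Both compartments were quantified by HPLC-MS/MS, and % bound was calculated from plasma vs buffer peak areas.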

Series [2] in a line: Metabolic stability in dog hepatocytes. In kind it is in vitro ADME. The conditions noted are these: pooled cryopreserved hepatocytes; beagle dog hepatocytes, 2 μM compound; read-out: Dog Hepatocyte Stability (t1/2). The gist of the method: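 Pooled cryopreserved beagle hepatocytes at 500,000 cells/mL in Krebs-Henseleit buffer with 2 μM compound, 37 °C, 5% CO2, sampled out to 180 min. Acetonitrile-quenched samples analysed by LC-MS/MS; percent remaining from peak area versus time zero.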

Series [3] is described as follows: Aqueous solubility in PBS by HPLC-UV/VIS. Format: physicochemical. The settings on record: phosphate buffered saline, aqueous buffer, kinetic from dmso stock; PBS pH 7.4, 2% DMSO, 24 h at room temperature. The gist of the method: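 Compound diluted to 200 μM in PBS pH 7.4 from DMSO stock (2% DMSO final), incubated 24 h at room temperature, then centrifuged. Supernatant analysed by HPLC-UV/VIS; solubility (μM) from principal-peak area versus a 200 μM calibration standard. Range approximately 0.5–200 μM.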

Series [4] has as its system Trypsin. The series is described as follows: Dose response assay for protease inhibitors: trypsin. Format: biochemical. The settings on record: selectivity, trypsin over Factor XIa. The gist of the method:
(§1)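 Glp-Pro-Arg-AMC substrate (thrombin, trypsin) or Pro-Phe-Arg-AMC/Boc-Leu-Gly-Arg-AMC (Factor Xa), diluted to 100 μM, in 20 mM Hepes pH 7.4, 150 mM NaCl, 0.02% Tween 20; enzyme diluted to 0.5 nM before addition. Two-fold serial compound dilutions; kinetic reads at 30° C. Data yield IC50 and Kon.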

Series [5] has as its target Thrombin (Homo sapiens (Human), UniProt P00734). Briefly: Dose response assay for protease inhibitors: thrombin. Format: biochemical. The conditions noted are these: selectivity, thrombin over Factor XIa. The gist of the method: as §1

The structures appear in SMILES notation. Where only a bound is given, the exact number is not on record here.

Turning to `CC[C@@H](NC(=O)N1C(=O)[C@H](Cc2cc(C)nc(N)c2)[C@H]1C(=O)N(C)c1ccnn1C)c1ccc(C)c(C)c1` [Compound 1-152, (2S,3R)-3-((2-amino-6-methylpyridin-4-yl)methyl)-N2-(1-methyl-1H-pyrazol-5-yl)-N1-((R)-1-(3,4-dimethylphenyl)propyl)-N2-methyl-4-oxoazetidine-1,2-dicarboxamide], in series [1], the fraction unbound at 4 h, 10 μM was 0.1 to 0.5. Also, the half-life at 2 μM in series [2] lay in the range of 1.02 to 2 h. The solubility (usually how much of the substance goes into solution per volume) at 24 h in series [3] is above 100 µM. Also, the “Ratio: Trypsin/FXIa” value in series [4] is reported as “G (“G” indicates 1-100)”. In series [5], the “Ratio: Thrombin/FXIa” value was “I (“I” indicates > 500)”.

For the molecule `CC[C@@H](NC(=O)N1C(=O)[C@H](Cc2cc(C)nc(N)c2)[C@H]1C(=O)N(C)c1ccnn1C)c1ccc(C)c(F)c1` [Compound 1-155, (2S,3R)-3-((2-amino-6-methylpyridin-4-yl)methyl)-N2-(1-methyl-1H-pyrazol-5-yl)-N1-((R)-1-(3-fluoro-4-methylphenyl)propyl)-N2-methyl-4-oxoazetidine-1,2-dicarboxamide], the fraction unbound at 4 h, 10 μM in series [1] is 0.1 to 0.5. Further, the half-life at 2 μM in series [2] fell in the range of 2.02 to 4 h. This molecule also showed a solubility at 24 h in series [3] above 100 µM. The “Ratio: Trypsin/FXIa” value in series [4] was “G (“G” indicates 1-100)”. Further, the “Ratio: Thrombin/FXIa” value in series [5] is given as “I (“I” indicates > 500)”.

Take `CC[C@@H](NC(=O)N1C(=O)[C@H](Cc2cc(C)nc(N)c2)[C@H]1C(=O)N(C)c1ccnn1C)c1ccc(F)c(F)c1` [Compound 1-158, (2S,3R)-3-((2-amino-6-methylpyridin-4-yl)methyl)-N2-(1-methyl-1H-pyrazol-5-yl)-N1-((R)-1-(3,4-difluorophenyl)propyl)-N2-methyl-4-oxoazetidine-1,2-dicarboxamide]: the fraction unbound at 4 h, 10 μM in series [1] was in the range of 0.05 to 0.09. For the same molecule, the half-life at 2 μM in series [2] lay within 2.02 to 4 h. This molecule showed a solubility at 24 h in series [3] above 100 µM. The “Ratio: Trypsin/FXIa” value in series [4] is “G (“G” indicates 1-100)”. Further, the “Ratio: Thrombin/FXIa” value in series [5] is “I (“I” indicates > 500)”.
